Starred links: 1 amine or outer side, 2 acyl side, 3 side chain; linkers in the order of their positions; H or OH if unused. Non-standard residues stand in square brackets, D forms with d. Residues, ends and D or L forms follow the SMILES beside them. X1 = O=C(CCc1ccccc1-c1cccc(CCN[*:1])c1)[*:2]; Orn = NCCC[C@H](N)C(=O)O
Assays:
[1] = Amide proton/deuterium exchange studies by NMR; type: physicochemical; conditions: for rates of amide proton/deuterium exchange of the Leu and Val residues flanking 1 relative to the remaining residues: peptide A 3.0-3.3 mM, pH 3.4-3.6, peptide D 2.5-2.9 mM, pH 4.1-5.1
Experimental: Information concerning the hydrogen-bonding network within a peptide containing residue 1A in aqueous solution was obtained from amide exchange studies of peptide A (3.0-3.3 mM, pH 3.4-3.6) and peptide D (2.5-2.9 mM, pH 4.1-5.1) where peptides A and D appear to be unstructured by far-UV CD.
Amide exchange studies at pH 3.2 were used to examine the hydrogen-bonding properties of peptide G which is expected to be partially folded on the basis of the studies discussed above.

[2] = Analytical equilibrium ultracentrifugation (solution molecular weight, quaternary structure)
[3] = Far-UV circular dichroism studies of peptide folding (random coil vs β-sheet); type: physicochemical
Experimental: Heptapeptide A has an -amino acid sequence homologous to a 4-(2-aminoethyl)-6-dibenzofuranpropionic acid-based heptapeptide studied previously, allowing comparsion of the efficacy of the biphenyl- and dibenzofuran-based amino acids as nucleators in a momologous α-aminoacid sequence. Peptide B, having a Phe in place of Leu-3, was prepared to test the feasibility of using an aromatic-aromatic interaction to stabilize the hydrophobic cluster and facilitate β-sheet folding. In peptide C, ornithine-2 was replaced with Glu to probe the effect of an addition long-range residue-residue electrostatic interaction (salt bridge) on β-sheet stability in the context of a heptapeptide.
The high charge density on peptides D and E should prevent the favorable strand-strand interactions required for sheet formation at low pH. The removal of two or more of the charges on the Lys ε-ammonium groups effected by increasing the pH is expected to facilitate intramolecular folding followed by self-assembly. A leucine was employed as one of the flanking residues in these peptides instead of valine because the increased side chain flexibility should maximize packing interactions required for hydrophobic cluster formation. […] Peptide E was identical to peptide D except that it incorporated residue 2A in place of residue 1A. […] Peptide F was prepared to probe the importance of hydrophobic cluster formation in β-sheet folding mediated by residue 1A. The flanking hydrophobic residues in peptide D were replaced with hydrophilic lysine residues in peptide F while maintaining a highly momologous amino acid composition and an amphiphilic periodicity of 2A.

| rates of amide proton/deuterium exchange of the Leu and Val residues flanking 1 relative to the remaining residues [1] | observed solution molecular weight (expected monomer 1644) ([2]; 0.11 mM, pH 6.8) | association state by analytical equilibrium ultracentrifugation ([2]; within the concentration and pH ranges studied) | rates of amide proton exchange of Leu-6, Val-8, Val-4 and Val-10 relative to the remaining residues ([1]; pH 3.2) | association state by concentration dependent far-UV CD ([3]; 0.015-0.4 mM, pH 7, mean residue ellipticity at 225 nm constant) | pH dependence of far-UV CD spectra ([3]; 25° C.) | structure by far-UV CD ([3]; 25° C.) | aggregation upon heating ([3]; upon heating) | change of structure upon heating (far-UV CD) ([3]; upon heating) | Molecule |
| --- | --- | --- | --- | --- | --- | --- | --- | --- | --- |
| at least an order of magnitude slower |  |  |  |  |  |  |  |  | CC(C)C[C@H](NC(=O)[C@H](CCCN)NC(=O)[C@@H](NC(=O)CCc1ccccc1-c1cccc(CCNC(=O)[C@H](CC(C)C)NC(=O)[C@H](CCCN)NC(=O)[C@@H](N)C(C)C)c1)C(C)C)C(N)=O [A, Val Orn Leu 1A Val Orn Leu] (H-V[Orn]L[X1]V[Orn]L-NH2) |
| at least an order of magnitude slower |  |  |  |  |  |  |  |  | CC(C)C[C@H](NC(=O)[C@H](CCCCN)NC(=O)[C@@H](NC(=O)[C@H](CCCCN)NC(=O)[C@@H](NC(=O)[C@@H](N)CCCCN)C(C)C)C(C)C)C(=O)NCCc1cccc(-c2ccccc2CCC(=O)N[C@H](C(=O)N[C@@H](CCCCN)C(=O)N[C@H](C(=O)N[C@@H](CCCCN)C(=O)N[C@H](C(=O)N[C@@H](CCCCN)C(N)=O)C(C)C)C(C)C)C(C)C)c1 [Peptide D, Lys Val Lys Val Lys Leu 1A Val Lys Val Lys Val Lys] (H-KVKVKL[X1]VKVKVK-NH2) |
|  | 1600±80 | monomeric | significantly slower | monomeric | little dependence on pH | both random coil and β-sheet structure | does not aggregate | increase in β-sheet structure | Lys Val N--Me--Leu Val Lys Leu 1A Val Lys Val N--Me--Leu Val Lys [Peptide G] |

— patent US6034211A, “β-sheet nucleating peptidomimetics” (priority 1996, dated 2000)
